Results published in patent US8871753B2, “Macrocyclic compounds and their use as kinase inhibitors” (Incyte Corporation, priority 2008, dated 2014).
pIC50: −log10 of the molar value. Where a name gives a salt, the structure may show the parent alone. Read-outs that look alike come from different tables or passages of the source.

Key:
[1] = target: T1, human JAK1 (a.a. 837-1142) (Homo sapiens, UniProt P23458); experiment: In vitro JAK kinase assay (HTRF, phosphorylation of a biotinylated peptide), JAK1; type: biochemical; details: read-out: JAK1 IC50
T1 construct: human JAK1 (a.a. 837-1142); His tag (N); made in house; host or cells: insect cells (baculovirus)
T1 sequence (P23458 849-1154): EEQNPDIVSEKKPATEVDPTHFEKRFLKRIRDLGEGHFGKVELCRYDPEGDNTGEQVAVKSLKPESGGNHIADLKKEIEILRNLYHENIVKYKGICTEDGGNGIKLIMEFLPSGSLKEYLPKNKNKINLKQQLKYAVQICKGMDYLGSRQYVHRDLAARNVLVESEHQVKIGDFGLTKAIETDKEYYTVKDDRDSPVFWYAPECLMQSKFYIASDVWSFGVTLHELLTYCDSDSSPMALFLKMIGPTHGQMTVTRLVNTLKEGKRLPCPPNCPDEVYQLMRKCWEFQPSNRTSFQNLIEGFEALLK
Procedure, shortened: (§1)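 Phosphorylation of a biotinylated peptide by the JAK kinase domain, detected by HTRF with Eu-Py20 and SA-APC. ATP was 90 μM for JAK1, 30 μM for JAK2 and 3 μM for JAK3. Reactions ran 1 h at room temperature and were stopped with EDTA, followed by 40 min antibody binding.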

TYK2 = TYK2 (Homo sapiens, UniProt P29597); experiment: TYK2 kinase inhibition (Table A1); type: biochemical
TYK2, sequence (P29597 whole entry): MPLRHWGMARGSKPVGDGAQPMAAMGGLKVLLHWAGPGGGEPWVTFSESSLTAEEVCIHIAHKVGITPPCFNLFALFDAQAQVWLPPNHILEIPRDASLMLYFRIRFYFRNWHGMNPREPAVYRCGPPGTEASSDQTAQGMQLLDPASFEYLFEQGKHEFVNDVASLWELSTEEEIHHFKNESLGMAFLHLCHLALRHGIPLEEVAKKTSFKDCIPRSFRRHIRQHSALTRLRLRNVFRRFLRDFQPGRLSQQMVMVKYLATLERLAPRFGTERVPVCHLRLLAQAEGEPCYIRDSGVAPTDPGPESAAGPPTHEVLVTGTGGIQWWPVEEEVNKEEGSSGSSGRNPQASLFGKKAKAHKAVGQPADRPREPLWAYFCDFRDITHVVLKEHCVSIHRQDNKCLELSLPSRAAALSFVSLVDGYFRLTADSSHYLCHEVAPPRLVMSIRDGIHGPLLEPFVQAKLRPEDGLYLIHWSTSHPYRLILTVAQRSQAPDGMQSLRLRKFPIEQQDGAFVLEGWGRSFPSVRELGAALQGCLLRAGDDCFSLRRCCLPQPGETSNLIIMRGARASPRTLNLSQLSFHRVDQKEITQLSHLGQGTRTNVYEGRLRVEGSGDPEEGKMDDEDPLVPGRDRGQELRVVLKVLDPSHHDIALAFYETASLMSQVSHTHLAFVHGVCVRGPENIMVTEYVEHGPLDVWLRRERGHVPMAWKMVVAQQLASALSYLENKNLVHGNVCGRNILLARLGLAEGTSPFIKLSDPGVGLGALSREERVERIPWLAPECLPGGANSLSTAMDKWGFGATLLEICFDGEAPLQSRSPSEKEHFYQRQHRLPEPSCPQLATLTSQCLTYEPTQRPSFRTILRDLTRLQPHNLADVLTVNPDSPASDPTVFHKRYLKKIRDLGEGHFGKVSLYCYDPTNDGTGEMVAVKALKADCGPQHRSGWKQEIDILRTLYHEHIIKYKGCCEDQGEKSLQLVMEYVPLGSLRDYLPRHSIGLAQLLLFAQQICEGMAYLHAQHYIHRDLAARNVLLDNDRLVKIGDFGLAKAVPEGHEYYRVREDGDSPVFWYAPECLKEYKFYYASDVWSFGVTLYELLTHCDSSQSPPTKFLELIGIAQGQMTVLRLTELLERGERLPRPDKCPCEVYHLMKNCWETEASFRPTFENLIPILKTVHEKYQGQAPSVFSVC

[2] = target: T2, human JAK3 (a.a. 781-1124) (Homo sapiens, UniProt P52333); experiment: In vitro JAK kinase assay (HTRF, phosphorylation of a biotinylated peptide), JAK3; type: biochemical
T2 construct: JAK3 (a.a. 781-1124); His tag (N); made in house; host or cells: insect cells (baculovirus)
T2 sequence (P52333 781-1124): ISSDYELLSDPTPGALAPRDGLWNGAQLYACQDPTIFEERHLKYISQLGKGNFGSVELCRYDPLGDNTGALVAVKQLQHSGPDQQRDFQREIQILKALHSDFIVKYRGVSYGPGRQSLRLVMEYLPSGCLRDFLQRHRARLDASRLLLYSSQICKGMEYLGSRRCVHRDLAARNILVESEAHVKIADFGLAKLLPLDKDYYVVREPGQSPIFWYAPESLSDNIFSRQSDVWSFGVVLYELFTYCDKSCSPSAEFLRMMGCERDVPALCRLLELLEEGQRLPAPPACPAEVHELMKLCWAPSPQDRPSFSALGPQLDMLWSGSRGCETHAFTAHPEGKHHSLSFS
Procedure, shortened: as §1

[3] = target: T3, Recombinant Human Anaplastic Lymphoma Kinase (Homo sapiens, UniProt Q9UM73); experiment: ALK HTRF kinase assay; type: biochemical; details: for ALK % inhibition at a concentration of 500 nM or 1 mM: compound at a concentration of 500 nM or 1 mM
T3 construct: purchased Invitrogen, Carlsbad, Calif
T3 sequence (Q9UM73 19-1620): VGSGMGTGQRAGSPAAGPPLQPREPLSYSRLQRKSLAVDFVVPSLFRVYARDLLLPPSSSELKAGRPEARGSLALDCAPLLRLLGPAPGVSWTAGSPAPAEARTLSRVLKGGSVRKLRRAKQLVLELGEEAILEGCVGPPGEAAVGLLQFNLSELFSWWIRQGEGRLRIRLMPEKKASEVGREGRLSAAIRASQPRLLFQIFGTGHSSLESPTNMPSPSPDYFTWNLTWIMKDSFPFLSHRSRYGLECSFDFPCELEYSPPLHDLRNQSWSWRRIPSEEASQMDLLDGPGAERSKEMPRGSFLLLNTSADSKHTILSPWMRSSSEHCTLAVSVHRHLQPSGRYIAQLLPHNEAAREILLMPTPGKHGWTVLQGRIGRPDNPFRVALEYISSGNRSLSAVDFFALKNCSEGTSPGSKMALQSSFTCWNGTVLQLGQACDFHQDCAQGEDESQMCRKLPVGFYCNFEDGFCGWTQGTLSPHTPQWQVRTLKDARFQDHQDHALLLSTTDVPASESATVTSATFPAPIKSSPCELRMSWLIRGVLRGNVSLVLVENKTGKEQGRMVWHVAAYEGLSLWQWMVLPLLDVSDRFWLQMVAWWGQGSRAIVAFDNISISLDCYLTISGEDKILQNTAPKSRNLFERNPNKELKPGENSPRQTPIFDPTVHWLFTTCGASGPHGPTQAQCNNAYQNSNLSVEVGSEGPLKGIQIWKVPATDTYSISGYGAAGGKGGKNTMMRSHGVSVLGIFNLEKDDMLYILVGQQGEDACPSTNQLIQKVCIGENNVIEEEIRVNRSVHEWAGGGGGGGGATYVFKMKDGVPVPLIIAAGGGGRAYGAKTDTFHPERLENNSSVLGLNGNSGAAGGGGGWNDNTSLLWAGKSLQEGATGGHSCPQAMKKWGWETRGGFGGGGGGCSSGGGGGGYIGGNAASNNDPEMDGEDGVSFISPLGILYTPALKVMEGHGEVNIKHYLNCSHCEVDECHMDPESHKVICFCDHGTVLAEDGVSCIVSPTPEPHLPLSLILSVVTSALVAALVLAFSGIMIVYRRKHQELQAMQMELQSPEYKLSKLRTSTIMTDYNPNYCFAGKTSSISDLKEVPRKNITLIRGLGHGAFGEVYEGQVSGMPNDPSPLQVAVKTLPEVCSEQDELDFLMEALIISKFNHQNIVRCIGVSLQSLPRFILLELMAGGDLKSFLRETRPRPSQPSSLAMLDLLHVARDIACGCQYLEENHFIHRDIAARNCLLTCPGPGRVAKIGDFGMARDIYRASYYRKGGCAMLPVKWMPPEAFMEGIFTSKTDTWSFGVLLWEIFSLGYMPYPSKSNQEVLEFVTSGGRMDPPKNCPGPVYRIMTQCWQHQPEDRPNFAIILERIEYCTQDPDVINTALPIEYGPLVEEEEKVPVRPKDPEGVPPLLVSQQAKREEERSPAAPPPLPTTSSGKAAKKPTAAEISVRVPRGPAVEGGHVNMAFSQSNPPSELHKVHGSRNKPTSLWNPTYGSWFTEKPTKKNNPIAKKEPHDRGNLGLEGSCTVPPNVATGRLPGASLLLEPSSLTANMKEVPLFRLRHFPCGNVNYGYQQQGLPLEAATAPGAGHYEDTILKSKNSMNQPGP
Procedure, shortened: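 Kinase activity of the recombinant human protein is measured on a biotinylated peptide, with a Eu-W1024 anti-phosphotyrosine antibody and streptavidin-allophycocyanin generating the homogeneous time-resolved fluorescence signal. Inhibition curves are fitted to yield IC50.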

[4] = target: T4, human JAK2 (a.a. 828-1132) (Homo sapiens, UniProt O60674); experiment: In vitro JAK kinase assay (HTRF, phosphorylation of a biotinylated peptide), JAK2; type: biochemical
T4 construct: JAK2 (a.a. 828-1132); His tag (N); made in house; host or cells: insect cells (baculovirus)
T4 sequence (O60674 828-1132): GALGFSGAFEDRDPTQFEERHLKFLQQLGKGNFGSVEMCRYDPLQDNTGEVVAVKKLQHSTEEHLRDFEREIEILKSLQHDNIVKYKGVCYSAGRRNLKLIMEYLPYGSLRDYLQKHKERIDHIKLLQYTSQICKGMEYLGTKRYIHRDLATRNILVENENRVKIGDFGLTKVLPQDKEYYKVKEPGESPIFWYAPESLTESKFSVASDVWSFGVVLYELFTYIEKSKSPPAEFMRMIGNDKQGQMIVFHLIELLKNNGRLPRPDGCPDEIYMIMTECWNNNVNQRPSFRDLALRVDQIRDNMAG
Procedure, shortened: as §1

[5] = cn_pd bond, 13-membered ring, Pd(OAc)2/Xantphos/Cs2CO3/Et3N, 1,4-dioxane/DMF 1:1, 160.0 °C

pIC50 [1] | pIC50 (TYK2) | pIC50 [2] | ALK % inhibition at a concentration of 500 nM or 1 mM [3] | pIC50 [4] | SMILES | also measured
8.54 | 8.36 | 7.89 | 26% | 8.64 | Clc1cnc2nc1Nc1cccc(c1)/C=C\c1cncc(c1)N2 [Example C20, (14Z)-6-Chloro-2,4,8,18,22-pentaazatetracyclo[14.3.1.1(3,7).1(9,13)]docosa-1(20),3(22),4,6,9(21),10,12,14,16,18-decaene bis(trifluoroacetate)] | ring closure, yield after HPLC (from Nc1cncc(/C=C\c2cccc(Nc3nc(Cl)ncc3Cl)c2)c1, cn_pd bond, 13-membered ring, Pd(OAc)2/Xantphos/Cs2CO3/Et3N, 1,4-dioxane, 70.0 mM, 150.0 °C, 1.0 h): 30%
< 6.00 | 7.08 | 6.46 | 14% | 7.22 | Fc1cnc2nc1Nc1cccc(c1)CCc1ccnc(c1)N2 [Example C16, 6-Fluoro-2,4,8,19,22-pentaazatetracyclo[14.3.1.1(3,7).1(9,13)]docosa-1(20),3(22),4,6,9(21),10,12,16,18-nonaene] | ring closure, isolated yield ([5]; from Nc1cc(CCc2cccc(Nc3nc(Cl)ncc3F)c2)ccn1, 60.0 mM, 0.5 h): 30%
6.15 | 6.97 |  | 6% | 7.06 | Clc1cnc2nc1Nc1cccc(c1)CCc1ccnc(c1)N2 [Example C15, 6-Chloro-2,4,8,19,22-pentaazatetracyclo[14.3.1.1(3,7).1(9,13)]docosa-1(20),3(22),4,6,9(21),10,12,16,18-nonaene] | ring closure, isolated yield ([5]; from Nc1cc(CCc2cccc(Nc3nc(Cl)ncc3Cl)c2)ccn1, 57.0 mM, 0.33 h): 61%
< 6.00 | < 6.00 | < 6.00 | 3% | < 6.00 | Fc1cnc2nc1Nc1cccc(c1)CCc1cccc(n1)N2 [Example C18, 6-Fluoro-2,4,8,20,22-pentaazatetracyclo[14.3.1.1(3,7).1(9,13)]docosa-1(20),3(22),4,6,9(21),10,12,16,18-nonaene] | ring closure, isolated yield ([5]; from Nc1cccc(CCc2cccc(Nc3nc(Cl)ncc3F)c2)n1, 60.0 mM, 1.0 h): 25%
8.54 | 8.00 | 7.55 | 45% | 8.15 | Clc1cnc2nc1Nc1cccc(c1)CCc1cncc(c1)N2 [Example C19, 6-Chloro-2,4,8,18,22-pentaazatetracyclo[14.3.1.1(3,7).1(9,13)]docosa-1(20),3(22),4,6,9(21),10,12,16,18-nonaene bis(trifluoroacetate)] | ring closure, yield after HPLC (from Nc1cncc(CCc2cccc(Nc3nc(Cl)ncc3Cl)c2)c1, cn_pd bond, 13-membered ring, Pd(OAc)2/Xantphos/Cs2CO3/Et3N, 1,4-dioxane, 140.0 mM, 150.0 °C, 1.0 h): 28%
 |  |  |  |  | Nc1ccc2cc1CCc1cncc(c1)Nc1ncc(Cl)c(n1)N2 [Example B20, 6-Chloro-2,4,8,18,22-pentaazatetracyclo[14.3.1.1(3,7).1(9,13)]docosa-1(20),3(22),4,6,9(21),10,12,16,18-nonaen-12-amine tris(trifluoroacetate)] | pIC50 ([1]; Table B1): 9.00; pIC50 (TYK2; Table B1): 8.80; pIC50 ([2]; Table B1): 8.17; ring closure, yield after HPLC (from Nc1cncc(CCc2cc(Nc3nc(Cl)ncc3Cl)ccc2N)c1, cn_pd bond, 13-membered ring, Pd2(dba)3/Xantphos/Cs2CO3/DIEA, 1,4-dioxane/DMF 3:1, 77.0 mM, 160.0 °C, 0.5 h): 23%; ALK % of inhibition at a concentration of 500 nM or 1 mM ([3]; compound at a concentration of 500 nM or 1 mM (not specified), cells shown as percentage): 51%; pIC50 ([4]; Table B1): 8.89
7.89 | 7.82 | 6.95 | 26% | 7.55 | Fc1cnc2nc1Nc1cccc(c1)CCc1cncc(c1)N2 [Example C21, 6-Fluoro-2,4,8,18,22-pentaazatetracyclo[14.3.1.1(3,7).1(9,13)]docosa-1(20),3(22),4,6,9(21),10,12,16,18-nonaene bis(trifluoroacetate)] | ring closure, yield after HPLC (from Nc1cncc(CCc2cccc(Nc3nc(Cl)ncc3F)c2)c1, cn_pd bond, 13-membered ring, Pd(OAc)2/Xantphos/Cs2CO3/Et3N, 1,4-dioxane, 87.0 mM, 150.0 °C, 2.0 h): 37%
 |  |  |  |  | Clc1cnc2nc1Nc1cccc(c1)CCOc1cccc(c1)N2 [Example D5, 6-Chloro-16-oxa-2,4,8,23-tetraazatetracyclo[15.3.1.1(3,7).1(9,13)]tricosa-1(21),3(23),4,6,9(22),10,12,17,19-nonaene trifluoroacetate] | pIC50 ([1]; Table D1): 7.52; pIC50 (TYK2; Table D1): 7.92; pIC50 ([2]; Table D1): 7.44; ring closure, yield after HPLC (from OCCc1cccc(Nc2nc(Nc3cccc(O)c3)ncc2Cl)c1, ether bond, 14-membered ring, PPh3/DIAD, THF, 8.5 mM, 25.0 °C, 2.0 h): 20%; pIC50 ([3]; Table D1, 90 μM ATP): 6.29; pIC50 ([4]; Table D1): 7.82
